For six molecules, IC50 results are on record in patent publication US5118697A, “Cyclic beta-ketoamide ACAT inhibitors” (Warner-Lambert Company, priority 1991, dated 1992).

pIC50: −log10 of the molar value.

The assay concerns the target T1, acyl-CoA: cholesterol acyltransferase (ACAT) (Oryctolagus cuniculus, UniProt G1SFD9).
T1 construct: tissue preparation containing rabbit intestinal microsomes; from tissue; host or cells: rabbit intestinal microsomes
T1 sequence (G1SFD9 1-524): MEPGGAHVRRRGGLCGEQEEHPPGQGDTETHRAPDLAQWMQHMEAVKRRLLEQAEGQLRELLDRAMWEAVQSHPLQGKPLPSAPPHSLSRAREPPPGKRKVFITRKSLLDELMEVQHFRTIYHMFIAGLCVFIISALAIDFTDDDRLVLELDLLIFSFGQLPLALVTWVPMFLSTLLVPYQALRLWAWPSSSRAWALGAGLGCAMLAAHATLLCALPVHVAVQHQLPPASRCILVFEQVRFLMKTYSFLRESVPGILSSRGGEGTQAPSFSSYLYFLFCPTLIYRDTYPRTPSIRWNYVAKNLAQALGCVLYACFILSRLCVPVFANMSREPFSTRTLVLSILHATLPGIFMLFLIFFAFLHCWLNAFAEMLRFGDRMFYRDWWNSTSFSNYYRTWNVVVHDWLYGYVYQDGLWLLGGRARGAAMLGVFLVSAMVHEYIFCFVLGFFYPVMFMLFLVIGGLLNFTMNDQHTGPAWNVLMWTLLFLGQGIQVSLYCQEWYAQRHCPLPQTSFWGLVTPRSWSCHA
The assay can be described thus: in vitro ACAT inhibition test: radiolabeled cholesterol oleate formed from radiolabeled oleic acid in rabbit intestinal microsomes. Format: biochemical. The source says: As shown by the data presented below in Table 1, the compounds of the present invention are potent inhibitors of the enzyme acyl-CoA: cholesterol acyltransferase (ACAT), and are thus effective in inhibiting the esterification and transport of cholesterol across the intestinal cell wall. The compounds of the present invention are thus useful in pharmaceutical formulations for the treatment of hypercholesterolemia or atherosclerosis.
The ability of representative compounds of the present invention to inhibit ACAT was measured using an in vitro test more fully described in F. J. Field and R. G. Salone, Biochemica et Biophysica 712:557-570 (1982). The test assesses the ability of a test compound to inhibit the acylation of cholesterol by oleic acid by measuring the amount of radiolabeled cholesterol oleate formed from radiolabeled oleic acid in a tissue preparation containing rabbit intestinal microsomes.
For `CC(C)c1cccc(C(C)C)c1NC(=O)C1CCC(c2ccccc2)(c2ccccn2)C1=O` (stereo not drawn) [Example 1], the pIC50 (commonly −log10 of the IC50, conventionally taken in molar units) is under 6.00.

`CC(C)c1cccc(C(C)C)c1NC(=O)C1CCCC(c2ccccc2)(c2ccccn2)C1=O` (stereo not drawn) [Example 2, N-[2,6 bis(1-methylethyl)phenyl]-2-oxo-3-phenyl-3-(2-pyridinyl)cyclohexanecarboxamide]: the pIC50 is 6.00.

`CC(C)c1cccc(C(C)C)c1NC(=O)C1CCCC(Cc2c(CCN(C)C)n(C)c3ccccc23)(c2ccccc2)C1=O` (stereo not drawn) [Example 3, N-[2,6 bis(1-methylethyl)phenyl-3-[2-[2-(dimethylamino)ethyl]-1-methyl-1H-indol-3-yl]methyl]-2-oxo-3-phenylcyclohexanecarboxamide] had a pIC50 of under 6.00.

The molecule `CC(C)c1cccc(C(C)C)c1NC(=O)C1CCCC(Cc2ccccn2)(c2ccccc2)C1=O` (stereo not drawn) [Example 4, N-[2,6-bis(1 methylethyl)phenyl]-2-oxo-3-phenyl-3-(2-pyridinylmethyl)cyclohexanecarboxamide] gave a negative logarithm of the IC50 (pIC50) of 6.59.

`CC(C)c1cccc(C(C)C)c1NC(=O)C1CCCC(Cc2ccccn2)(Cc2ccccn2)C1=O` (stereo not drawn) [Example 5, N-[2,6-bis(1-methylethyl)phenyl]-2-oxo-3,3-bis(2-pyridinylmethyl)cyclohexanecarboxamide] showed a pIC50 of 6.03.

In the case of `CC(C)c1cccc(C(C)C)c1NC(=O)C1CCCC(CCCCCOc2ccccc2)(c2ccccc2)C1=O` (stereo not drawn) [Example 6, N-[2,6-bis (1-methylethyl)phenyl]-2-oxo-3-(5-phenoxypentyl)-3-phenylcyclohexanecarboxamide], the pIC50 is 7.14.
